Source: article PMC8501799, “Constitutive signal bias mediated by the human GHRHR splice variant 1” (Proceedings of the National Academy of Sciences of the …, 2021)

Key:
Type in all cases: cell-based, human
[1] = tested on: GHRHR mutants (F82, F85, D274, E223, N296, L337, F338 to alanine); experiment: β-arrestin 1 recruitment (BRET), GHRHR single-point alanine mutants; details: single residue to alanine; 250 μM GHRH; HEK293T; Fig. 5G
Method: HEK293T cells were seeded at a density of 30,000 cells per well into 96-well culture plates pretreated with poly-D-lysine hydrobromide. After incubation for 24 h to reach 70% to 80% confluence, the cells were transiently transfected with HA-Flag-GHRHR-Rluc8 or HA-Flag-SV1-Rluc8 and β-arrestin 1/2-Venus at a 1:9 mass ratio using lipofectamine 3000 reagent (Invitrogen) and cultured for another 24 h. Thereafter, cells were washed once and incubated for 30 min at 37 °C with HBSS buffer (pH 7.4) supplemented with 0.1% BSA and 10 mM HEPES. Five micromolars of coelenterazine h (YEASEN Biotechnology) was then added and incubated for 5 min in the dark. The bioluminescence resonance energy transfer (BRET) signals were detected with an Envision plate reader by calculating the ratio of emission at 535 nm over emission at 470 nm.

SV1 L290A = experiment: cAMP accumulation; details: Table S4, mean ± SEM
Method: (§1) GHRH-stimulated cAMP accumulation was measured by a LANCE Ultra cAMP kit (PerkinElmer). Briefly, HEK293T cells (24 h after transfection with SV1 or GHRHR) or prostate cancer cells were digested by 0.2% (wt/vol) EDTA and washed once with Dulbecco’s phosphate-buffered saline (PBS). Cells were then resuspended with stimulation buffer (Hanks’ balanced salt solution [HBSS] supplemented with 5 mM HEPES, 0.5 mM IBMX, and 0.1% [wt/vol] bovine serum albumin [BSA], pH 7.4) to a density of 0.6 million cells per milliliter and added to 384-well white plates (3,000 cells per well). […] The reaction was stopped by adding 5 μL Eu-cAMP tracer and 5 μL ULight-anti-cAMP. After 1 h RT incubation, TR-FRET signals (excitation: 320 nm, emission: 615 and 665 nm) were measured by an Envision plate reader (PerkinElmer). cAMP concentrations were interpolated by a standard curve.
(§2) All functional study data were analyzed using Prism 7 (GraphPad) and presented as means ± SEM from at least three independent experiments. Concentration-response curves were evaluated with a three-parameter logistic equation. The significance was determined with either two-tailed Student’s t test or one-way ANOVA, and P < 0.05 is considered statistically significant.
(§3) Table S4. Effects of residue mutation in the ligand-binding pocket of SV1 on GHRH-induced cAMP […]
(§4) Mutant pEC50 Emax Cell surface expression ΔLog (τ/KA)
(§5) (% WT GHRHR) (% WT GHRHR) cAMP accumulation data were analyzed using a three-parameter logistic equation to determine pEC50 and Emax values. pEC50 is the negative logarithm of the molar concentration of agonist that induced half the maximal response. Emax for mutants is expressed as a percentage of the WT GHRHR. Data were analyzed by nonlinear regression using the operational model equation to determine t he logR values (logτ/KA, i.e., logarithm of the transduction ratio). τ is the effi cacy value of the agonist and was corrected by cell surface expression of the receptor. KA is dissociation constant. Changes in transduction ratio (ΔlogR) were calculated to determine the relative effectiveness of the mutants. All values are means ± S.E.M. of four independent experiments (n = 4) conducted in quadruplicate. Statistical analysis was carried out by comparing the control responses in the WT-SV1. *, P < 0.05, **, P < 0.01 and ***, P < 0.001, determined by one-way

SV1 V65A = experiment: cAMP accumulation; details: Table S4, mean ± SEM
Method: as §1, §2, §3, §4, §5

SV1 S145A = experiment: cAMP accumulation; details: Table S4, mean ± SEM
Method: as §1, §2, §3, §4, §5

SV1 H146A = experiment: cAMP accumulation; details: Table S4, mean ± SEM
Method: as §1, §2, §3, §4, §5

SV1 Y69A = experiment: cAMP accumulation; details: Table S4, mean ± SEM
Method: as §1, §2, §3, §4, §5

SV1 I225A = experiment: cAMP accumulation; details: Table S4, mean ± SEM
Method: as §1, §2, §3, §4, §5

SV1 L294A = experiment: cAMP accumulation; details: Table S4, mean ± SEM
Method: as §1, §2, §3, §4, §5

SV1 F62A = experiment: cAMP accumulation; details: Table S4, mean ± SEM
Method: as §1, §2, §3, §4, §5

SV1 K118A = experiment: cAMP accumulation; details: Table S4, mean ± SEM
Method: as §1, §2, §3, §4, §5

SV1 K66A = experiment: cAMP accumulation; details: Table S4, mean ± SEM
Method: as §1, §2, §3, §4, §5

[2] = HEK293T, LANCE Ultra cAMP, 30 min RT, 0.5 mM IBMX, n = 4 in quadruplicate
[3] = HEK293T, n = 4 in quadruplicate
[4] = operational model, τ corrected by cell surface expression, n = 4

Compound: CC[C@H](C)[C@H](NC(=O)[C@H](C)NC(=O)[C@H](CC(=O)O)NC(=O)[C@H](C)NC(=O)[C@@H](N)Cc1ccc(O)cc1)C(=O)N[C@@H](Cc1ccccc1)C(=O)N[C@H](C(=O)N[C@@H](CC(N)=O)C(=O)N[C@@H](CO)C(=O)N[C@@H](Cc1ccc(O)cc1)C(=O)N[C@@H](CCCNC(=N)N)C(=O)N[C@@H](CCCCN)C(=O)N[C@H](C(=O)N[C@@H](CC(C)C)C(=O)NCC(=O)N[C@@H](CCC(N)=O)C(=O)N[C@@H](CC(C)C)C(=O)N[C@@H](CO)C(=O)N[C@@H](C)C(=O)N[C@@H](CCCNC(=N)N)C(=O)N[C@@H](CCCCN)C(=O)N[C@@H](CC(C)C)C(=O)N[C@@H](CC(C)C)C(=O)N[C@@H](CCC(N)=O)C(=O)N[C@@H](CC(=O)O)C(=O)N[C@H](C(=O)N[C@@H](CCSC)C(=O)N[C@@H](CO)C(=O)N[C@@H](CCCNC(=N)N)C(=O)N[C@@H](CCC(N)=O)C(=O)N[C@@H](CCC(N)=O)C(=O)NCC(=O)N[C@@H](CCC(=O)O)C(=O)N[C@@H](CO)C(=O)N[C@@H](CC(N)=O)C(=O)N[C@@H](CCC(N)=O)C(=O)N[C@@H](CCC(=O)O)C(=O)N[C@@H](CCCNC(=N)N)C(=O)NCC(=O)N[C@@H](C)C(=O)N[C@@H](CCCNC(=N)N)C(=O)N[C@@H](C)C(=O)N[C@@H](CCCNC(=N)N)C(=O)N[C@@H](CC(C)C)C(N)=O)[C@@H](C)CC)C(C)C)[C@@H](C)O [GHRH, growth hormone–releasing hormone]
- β-arrestin 1 recruitment [1]: significantly increased the capability of GHRHR to recruit β-arrestin 1
- pEC50 of cAMP accumulation (SV1 L290A; [2]): 5.58 ± 0.08
- Emax of cAMP accumulation (SV1 L290A; [3]): 109.60 ± 3.90 % WT GHRHR
- ΔLog (τ/KA) (SV1 L290A; [4]): -4.56 ± 0.09
- pEC50 of cAMP accumulation (SV1 V65A; [2]): 5.33 ± 0.09
- Emax of cAMP accumulation (SV1 V65A; [3]): 106.08 ± 4.91 % WT GHRHR
- ΔLog (τ/KA) (SV1 V65A; [4]): -4.08 ± 0.12
- pEC50 of cAMP accumulation (SV1 S145A; [2]): 6.34 ± 0.09
- Emax of cAMP accumulation (SV1 S145A; [3]): 101.87 ± 3.50 % WT GHRHR
- ΔLog (τ/KA) (SV1 S145A; [4]): -4.22 ± 0.14
- pEC50 of cAMP accumulation (SV1 H146A; [2]): 5.07 ± 0.08
- Emax of cAMP accumulation (SV1 H146A; [3]): 101.06 ± 4.83 % WT GHRHR
- ΔLog (τ/KA) (SV1 H146A; [4]): -4.64 ± 0.11
- pEC50 of cAMP accumulation (SV1 Y69A; [2]): 5.44 ± 0.09
- Emax of cAMP accumulation (SV1 Y69A; [3]): 104.75 ± 4.29 % WT GHRHR
- ΔLog (τ/KA) (SV1 Y69A; [4]): -3.81 ± 0.10
- pEC50 of cAMP accumulation (SV1 I225A; [2]): 4.98 ± 0.12
- Emax of cAMP accumulation (SV1 I225A; [3]): 76.03 ± 5.48 % WT GHRHR
- ΔLog (τ/KA) (SV1 I225A; [4]): -3.85 ± 0.13
- pEC50 of cAMP accumulation (SV1 L294A; [2]): 5.32 ± 0.10
- Emax of cAMP accumulation (SV1 L294A; [3]): 106.26 ± 5.25 % WT GHRHR
- ΔLog (τ/KA) (SV1 L294A; [4]): -4.96 ± 0.12
- pEC50 of cAMP accumulation (SV1 F62A; [2]): 5.28 ± 0.08
- Emax of cAMP accumulation (SV1 F62A; [3]): 105.64 ± 4.54 % WT GHRHR
- ΔLog (τ/KA) (SV1 F62A; [4]): -4.41 ± 0.14
- pEC50 of cAMP accumulation (SV1 K118A; [2]): 4.61 ± 0.12
- Emax of cAMP accumulation (SV1 K118A; [3]): 92.40 ± 7.25 % WT GHRHR
- ΔLog (τ/KA) (SV1 K118A; [4]): -4.51 ± 0.13
- pEC50 of cAMP accumulation (SV1 K66A; [2]): 5.60 ± 0.08
- Emax of cAMP accumulation (SV1 K66A; [3]): 106.82 ± 4.09 % WT GHRHR
- ΔLog (τ/KA) (SV1 K66A; [4]): -4.02 ± 0.11
